Tests used:
Assay in all cases: KINOMEscan competition binding
CLK4 = CLK4 (Homo sapiens, UniProt Q9HAZ1); conditions: read-out: %Inh CLK4
CSNK1G1 = CSNK1G1 (Homo sapiens, UniProt Q9HCP0); conditions: read-out: %Inh CSNK1G1
IRAK4 = molecular target: T1, IRAK4 (Homo sapiens, UniProt Q9NWZ3); conditions: read-out: %Inh IRAK4
T1 sequence (Q9NWZ3 1-460): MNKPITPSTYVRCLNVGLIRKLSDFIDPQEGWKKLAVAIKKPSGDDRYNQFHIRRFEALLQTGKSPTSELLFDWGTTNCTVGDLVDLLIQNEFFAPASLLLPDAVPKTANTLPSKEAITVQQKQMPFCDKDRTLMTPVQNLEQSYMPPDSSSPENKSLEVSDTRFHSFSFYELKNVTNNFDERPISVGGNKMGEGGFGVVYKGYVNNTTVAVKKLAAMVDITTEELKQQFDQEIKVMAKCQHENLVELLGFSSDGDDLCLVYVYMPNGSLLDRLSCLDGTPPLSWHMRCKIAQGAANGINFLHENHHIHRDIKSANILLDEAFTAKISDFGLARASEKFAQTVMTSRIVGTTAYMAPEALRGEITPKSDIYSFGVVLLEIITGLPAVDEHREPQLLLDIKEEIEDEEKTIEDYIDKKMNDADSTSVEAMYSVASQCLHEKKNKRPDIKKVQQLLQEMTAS

CAMK2G = CAMK2G (Homo sapiens, UniProt Q13555); conditions: read-out: %Inh CAMK2G
Chain of CAMK2G (Q13555 whole entry): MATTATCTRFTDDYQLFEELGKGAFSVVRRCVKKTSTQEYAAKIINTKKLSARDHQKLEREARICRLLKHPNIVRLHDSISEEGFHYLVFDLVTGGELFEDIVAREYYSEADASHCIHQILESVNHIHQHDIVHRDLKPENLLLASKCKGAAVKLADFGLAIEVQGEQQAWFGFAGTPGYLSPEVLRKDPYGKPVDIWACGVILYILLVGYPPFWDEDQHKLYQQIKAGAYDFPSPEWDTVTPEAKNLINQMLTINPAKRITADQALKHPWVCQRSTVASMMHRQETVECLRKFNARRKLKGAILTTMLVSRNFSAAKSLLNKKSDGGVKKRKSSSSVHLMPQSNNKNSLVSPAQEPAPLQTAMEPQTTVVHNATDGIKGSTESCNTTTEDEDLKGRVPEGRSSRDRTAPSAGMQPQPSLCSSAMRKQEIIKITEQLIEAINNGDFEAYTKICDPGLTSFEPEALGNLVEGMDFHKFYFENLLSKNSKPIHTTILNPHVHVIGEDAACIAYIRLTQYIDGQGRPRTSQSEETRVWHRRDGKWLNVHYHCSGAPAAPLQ

ERBB3 = ERBB3 (Homo sapiens, UniProt P21860); conditions: read-out: %Inh ERBB3
Chain of ERBB3 (P21860 20-1342): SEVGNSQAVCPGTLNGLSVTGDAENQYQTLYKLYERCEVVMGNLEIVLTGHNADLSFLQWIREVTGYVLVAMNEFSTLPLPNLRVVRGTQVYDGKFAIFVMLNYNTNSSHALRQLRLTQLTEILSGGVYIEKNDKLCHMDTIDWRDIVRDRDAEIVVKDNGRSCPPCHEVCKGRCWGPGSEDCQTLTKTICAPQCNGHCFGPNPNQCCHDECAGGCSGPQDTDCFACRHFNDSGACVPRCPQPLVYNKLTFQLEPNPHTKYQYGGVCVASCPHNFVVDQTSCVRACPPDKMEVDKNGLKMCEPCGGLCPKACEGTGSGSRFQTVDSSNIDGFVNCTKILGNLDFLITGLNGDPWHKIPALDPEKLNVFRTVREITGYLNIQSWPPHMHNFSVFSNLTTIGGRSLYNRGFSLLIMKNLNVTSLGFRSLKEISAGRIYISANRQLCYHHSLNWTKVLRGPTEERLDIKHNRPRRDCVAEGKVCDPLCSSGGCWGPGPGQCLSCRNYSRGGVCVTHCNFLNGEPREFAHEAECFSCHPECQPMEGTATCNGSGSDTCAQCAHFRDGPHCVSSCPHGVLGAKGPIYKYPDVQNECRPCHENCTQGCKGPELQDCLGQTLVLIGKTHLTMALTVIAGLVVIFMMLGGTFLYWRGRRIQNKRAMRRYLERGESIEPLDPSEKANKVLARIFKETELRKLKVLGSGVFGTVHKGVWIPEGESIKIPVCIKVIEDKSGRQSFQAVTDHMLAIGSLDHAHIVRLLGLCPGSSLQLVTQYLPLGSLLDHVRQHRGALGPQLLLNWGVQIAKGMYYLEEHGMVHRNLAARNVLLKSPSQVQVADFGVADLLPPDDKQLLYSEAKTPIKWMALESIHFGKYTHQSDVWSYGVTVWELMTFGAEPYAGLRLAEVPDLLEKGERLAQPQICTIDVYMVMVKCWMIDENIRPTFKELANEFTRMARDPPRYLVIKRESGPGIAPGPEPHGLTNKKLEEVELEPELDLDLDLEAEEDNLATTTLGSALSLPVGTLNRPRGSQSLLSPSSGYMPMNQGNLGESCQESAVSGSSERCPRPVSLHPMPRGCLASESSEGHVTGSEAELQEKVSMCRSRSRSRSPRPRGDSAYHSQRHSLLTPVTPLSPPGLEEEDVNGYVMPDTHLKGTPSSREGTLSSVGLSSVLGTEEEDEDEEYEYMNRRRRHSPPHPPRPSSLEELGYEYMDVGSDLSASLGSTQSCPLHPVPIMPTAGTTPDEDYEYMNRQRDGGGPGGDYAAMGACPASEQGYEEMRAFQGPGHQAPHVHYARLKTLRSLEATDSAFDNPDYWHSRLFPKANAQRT

HIPK3 = HIPK3 (Homo sapiens, UniProt Q9H422); conditions: read-out: %Inh HIPK3
Chain of HIPK3 (Q9H422 whole entry): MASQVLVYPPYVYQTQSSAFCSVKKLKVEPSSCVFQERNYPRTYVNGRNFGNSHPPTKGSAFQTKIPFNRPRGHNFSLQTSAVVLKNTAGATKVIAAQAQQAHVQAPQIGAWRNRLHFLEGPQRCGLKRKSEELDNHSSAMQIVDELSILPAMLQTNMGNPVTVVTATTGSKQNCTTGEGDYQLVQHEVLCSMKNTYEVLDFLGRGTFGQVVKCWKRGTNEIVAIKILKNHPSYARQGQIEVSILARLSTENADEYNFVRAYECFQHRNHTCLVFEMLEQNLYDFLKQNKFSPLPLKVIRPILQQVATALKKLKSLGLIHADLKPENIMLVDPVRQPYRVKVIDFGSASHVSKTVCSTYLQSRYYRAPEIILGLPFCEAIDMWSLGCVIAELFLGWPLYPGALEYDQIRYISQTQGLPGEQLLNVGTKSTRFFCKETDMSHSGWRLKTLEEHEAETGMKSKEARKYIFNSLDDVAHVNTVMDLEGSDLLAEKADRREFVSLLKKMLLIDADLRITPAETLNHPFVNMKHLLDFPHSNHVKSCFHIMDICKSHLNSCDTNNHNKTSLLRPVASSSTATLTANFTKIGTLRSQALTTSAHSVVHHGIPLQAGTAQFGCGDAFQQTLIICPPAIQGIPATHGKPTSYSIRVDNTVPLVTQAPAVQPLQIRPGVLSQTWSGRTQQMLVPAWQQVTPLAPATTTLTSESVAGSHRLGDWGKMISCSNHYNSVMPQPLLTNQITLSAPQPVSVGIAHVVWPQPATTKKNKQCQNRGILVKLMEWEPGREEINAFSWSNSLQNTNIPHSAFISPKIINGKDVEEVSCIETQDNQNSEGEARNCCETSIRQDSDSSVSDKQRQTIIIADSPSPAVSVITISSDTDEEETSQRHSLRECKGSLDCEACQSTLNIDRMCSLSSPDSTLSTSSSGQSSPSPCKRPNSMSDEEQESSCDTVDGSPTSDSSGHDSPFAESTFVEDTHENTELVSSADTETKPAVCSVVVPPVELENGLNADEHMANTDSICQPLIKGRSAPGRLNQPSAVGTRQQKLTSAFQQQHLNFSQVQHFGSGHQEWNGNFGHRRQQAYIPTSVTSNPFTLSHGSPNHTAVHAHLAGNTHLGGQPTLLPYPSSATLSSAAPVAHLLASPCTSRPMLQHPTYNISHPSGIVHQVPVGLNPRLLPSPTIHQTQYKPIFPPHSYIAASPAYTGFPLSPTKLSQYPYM

JNK2 = JNK2 (Homo sapiens, UniProt P45984); conditions: read-out: %Inh JNK2
ALK = ALK (Homo sapiens, UniProt Q9UM73); conditions: read-out: %Inh ALK
JNK3 = JNK3 (Homo sapiens, UniProt P53779); conditions: read-out: %Inh JNK3
Chain of JNK3 (P53779 whole entry): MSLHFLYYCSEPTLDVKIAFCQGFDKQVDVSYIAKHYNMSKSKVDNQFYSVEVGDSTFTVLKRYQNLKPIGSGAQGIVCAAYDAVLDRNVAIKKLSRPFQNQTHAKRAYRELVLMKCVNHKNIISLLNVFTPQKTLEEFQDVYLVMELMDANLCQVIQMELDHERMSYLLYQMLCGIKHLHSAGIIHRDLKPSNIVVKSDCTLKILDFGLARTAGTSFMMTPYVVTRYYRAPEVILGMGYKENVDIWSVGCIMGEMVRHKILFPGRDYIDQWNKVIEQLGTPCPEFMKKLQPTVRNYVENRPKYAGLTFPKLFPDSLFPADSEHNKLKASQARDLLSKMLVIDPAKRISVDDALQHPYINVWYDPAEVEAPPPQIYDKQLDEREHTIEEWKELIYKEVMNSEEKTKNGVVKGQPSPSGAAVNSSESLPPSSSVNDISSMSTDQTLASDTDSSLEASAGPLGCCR

CLK1 = CLK1 (Homo sapiens, UniProt P49759); conditions: read-out: %Inh CLK1
Chain of CLK1 (P49759 whole entry): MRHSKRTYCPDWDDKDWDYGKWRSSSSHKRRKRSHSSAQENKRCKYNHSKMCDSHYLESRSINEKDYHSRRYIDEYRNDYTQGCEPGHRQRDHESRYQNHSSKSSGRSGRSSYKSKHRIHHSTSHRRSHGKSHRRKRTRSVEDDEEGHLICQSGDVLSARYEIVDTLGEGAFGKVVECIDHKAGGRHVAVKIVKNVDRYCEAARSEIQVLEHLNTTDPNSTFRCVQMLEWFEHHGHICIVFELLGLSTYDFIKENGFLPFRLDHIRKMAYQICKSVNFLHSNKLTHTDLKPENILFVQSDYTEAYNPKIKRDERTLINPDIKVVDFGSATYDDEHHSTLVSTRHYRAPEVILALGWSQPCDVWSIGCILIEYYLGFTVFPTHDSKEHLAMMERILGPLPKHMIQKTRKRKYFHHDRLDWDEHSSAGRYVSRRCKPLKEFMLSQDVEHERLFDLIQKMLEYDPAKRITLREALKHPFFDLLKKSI

IKK-beta = molecular target: T2, IKK-beta (Homo sapiens, UniProt O14920); conditions: read-out: %Inh IKK-beta
T2 sequence (O14920 1-756): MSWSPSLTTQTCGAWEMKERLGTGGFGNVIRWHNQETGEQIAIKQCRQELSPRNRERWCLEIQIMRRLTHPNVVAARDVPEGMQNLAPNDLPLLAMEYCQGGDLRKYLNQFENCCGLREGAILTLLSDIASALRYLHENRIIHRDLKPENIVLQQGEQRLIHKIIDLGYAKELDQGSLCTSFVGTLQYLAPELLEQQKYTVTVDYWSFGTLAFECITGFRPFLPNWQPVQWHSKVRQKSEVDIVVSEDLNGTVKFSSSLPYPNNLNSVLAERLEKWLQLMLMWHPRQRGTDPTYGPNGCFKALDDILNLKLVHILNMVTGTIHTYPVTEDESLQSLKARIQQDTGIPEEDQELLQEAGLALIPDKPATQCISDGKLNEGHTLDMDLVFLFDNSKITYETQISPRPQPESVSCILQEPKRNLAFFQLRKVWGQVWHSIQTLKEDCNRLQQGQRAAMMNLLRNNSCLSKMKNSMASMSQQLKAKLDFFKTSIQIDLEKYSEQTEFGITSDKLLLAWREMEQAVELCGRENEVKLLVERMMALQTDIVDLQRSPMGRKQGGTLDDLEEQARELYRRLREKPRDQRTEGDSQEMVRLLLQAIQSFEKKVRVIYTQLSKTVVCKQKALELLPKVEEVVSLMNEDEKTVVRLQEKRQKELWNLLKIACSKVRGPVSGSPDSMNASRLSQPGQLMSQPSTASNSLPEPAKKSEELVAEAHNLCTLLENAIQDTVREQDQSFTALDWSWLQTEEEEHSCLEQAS

EPHA3 = molecular target: T3, EPHA3 (Homo sapiens, UniProt P29320); conditions: read-out: %Inh EPHA3
T3 sequence (P29320 21-983): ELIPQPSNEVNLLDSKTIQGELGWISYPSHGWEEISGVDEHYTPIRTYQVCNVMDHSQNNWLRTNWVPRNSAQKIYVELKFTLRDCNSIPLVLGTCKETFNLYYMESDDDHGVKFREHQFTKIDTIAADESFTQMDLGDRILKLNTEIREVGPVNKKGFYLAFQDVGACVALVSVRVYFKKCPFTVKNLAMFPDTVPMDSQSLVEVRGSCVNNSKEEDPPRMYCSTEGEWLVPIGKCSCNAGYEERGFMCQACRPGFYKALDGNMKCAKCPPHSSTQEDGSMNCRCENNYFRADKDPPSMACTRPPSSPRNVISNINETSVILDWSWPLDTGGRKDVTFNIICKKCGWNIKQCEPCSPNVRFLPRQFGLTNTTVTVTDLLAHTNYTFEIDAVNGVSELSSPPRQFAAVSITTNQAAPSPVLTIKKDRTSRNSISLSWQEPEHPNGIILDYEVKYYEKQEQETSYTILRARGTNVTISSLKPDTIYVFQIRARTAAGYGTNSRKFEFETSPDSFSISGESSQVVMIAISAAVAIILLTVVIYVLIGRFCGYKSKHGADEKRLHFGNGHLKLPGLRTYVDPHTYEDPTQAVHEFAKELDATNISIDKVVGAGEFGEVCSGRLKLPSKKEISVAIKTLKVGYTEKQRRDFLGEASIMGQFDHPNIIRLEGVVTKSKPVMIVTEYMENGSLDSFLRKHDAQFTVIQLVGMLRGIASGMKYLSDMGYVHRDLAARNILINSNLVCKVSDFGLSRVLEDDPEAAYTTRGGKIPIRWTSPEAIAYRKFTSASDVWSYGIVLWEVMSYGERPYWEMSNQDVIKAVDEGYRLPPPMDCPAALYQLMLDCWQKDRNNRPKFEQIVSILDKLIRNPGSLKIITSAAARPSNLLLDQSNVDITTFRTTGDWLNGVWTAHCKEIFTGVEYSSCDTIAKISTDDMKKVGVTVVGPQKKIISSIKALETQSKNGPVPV

Chain of CLK4 (Q9HAZ1 whole entry): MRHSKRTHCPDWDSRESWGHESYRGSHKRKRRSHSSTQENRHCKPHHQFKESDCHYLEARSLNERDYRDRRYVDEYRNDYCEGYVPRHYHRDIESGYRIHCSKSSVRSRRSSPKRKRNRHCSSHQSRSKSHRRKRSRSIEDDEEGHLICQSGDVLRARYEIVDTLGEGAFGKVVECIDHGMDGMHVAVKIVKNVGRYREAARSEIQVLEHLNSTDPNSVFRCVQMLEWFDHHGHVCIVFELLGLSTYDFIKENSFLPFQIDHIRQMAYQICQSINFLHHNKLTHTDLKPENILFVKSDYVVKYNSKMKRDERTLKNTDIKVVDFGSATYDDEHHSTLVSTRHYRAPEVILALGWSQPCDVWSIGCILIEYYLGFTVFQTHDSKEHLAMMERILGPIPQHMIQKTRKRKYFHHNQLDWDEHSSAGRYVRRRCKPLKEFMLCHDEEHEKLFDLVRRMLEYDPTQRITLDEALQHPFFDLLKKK
Chain of CSNK1G1 (Q9HCP0 whole entry): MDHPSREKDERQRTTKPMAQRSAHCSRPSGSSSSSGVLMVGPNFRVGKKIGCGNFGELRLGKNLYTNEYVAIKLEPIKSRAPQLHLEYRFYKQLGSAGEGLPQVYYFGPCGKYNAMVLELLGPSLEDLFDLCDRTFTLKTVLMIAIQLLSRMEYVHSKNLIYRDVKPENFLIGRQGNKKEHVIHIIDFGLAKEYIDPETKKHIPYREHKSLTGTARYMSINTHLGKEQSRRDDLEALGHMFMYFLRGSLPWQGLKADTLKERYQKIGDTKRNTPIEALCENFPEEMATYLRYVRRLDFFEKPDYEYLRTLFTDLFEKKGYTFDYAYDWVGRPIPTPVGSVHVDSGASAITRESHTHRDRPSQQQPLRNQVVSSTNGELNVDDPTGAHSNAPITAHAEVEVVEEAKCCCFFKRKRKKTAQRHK

Cn1cc(-c2cnc(N)c3c(-c4ccc5c(c4)CCN5C(=O)Cc4ccccc4)csc23)cn1 [UNC10225012A]
inhibition at 1 µM (CLK4): 0%
inhibition at 1 µM (CSNK1G1): 21%
inhibition at 1 µM (IRAK4): 0%
inhibition at 1 µM (CAMK2G): 13%
inhibition at 1 µM (ERBB3): 4%
inhibition at 1 µM (HIPK3): 7%
inhibition at 1 µM (JNK2): 0%
inhibition at 1 µM (ALK): 0%
inhibition at 1 µM (JNK3): 0%
inhibition at 1 µM (CLK1): 15%
inhibition at 1 µM (IKK-beta): 0%
inhibition at 1 µM (EPHA3): 0%

CS(=O)(=O)Cc1ccc(Nc2nccc(-c3c(-c4cccc(NC(=O)C5CCCCC5)c4)nn4ncccc34)n2)cc1 [UNC10225159A]
inhibition at 1 µM (CLK4): 0%
inhibition at 1 µM (CSNK1G1): 2%
inhibition at 1 µM (IRAK4): 25%
inhibition at 1 µM (CAMK2G): 0%
inhibition at 1 µM (ERBB3): 22%
inhibition at 1 µM (HIPK3): 23%
inhibition at 1 µM (JNK2): 49%
inhibition at 1 µM (ALK): 29%
inhibition at 1 µM (JNK3): 36%
inhibition at 1 µM (CLK1): 10%
inhibition at 1 µM (IKK-beta): 12%
inhibition at 1 µM (EPHA3): 16%

Cc1ccc(NC(=O)Nc2cccc(C(F)(F)F)c2)cc1 [UNC10225187A]
inhibition at 1 µM (CLK4): 0%
inhibition at 1 µM (CSNK1G1): 0%
inhibition at 1 µM (IRAK4): 0%
inhibition at 1 µM (CAMK2G): 4%
inhibition at 1 µM (ERBB3): 17%
inhibition at 1 µM (HIPK3): 0%
inhibition at 1 µM (JNK2): 26%
inhibition at 1 µM (ALK): 0%
inhibition at 1 µM (JNK3): 46%
inhibition at 1 µM (CLK1): 3%
inhibition at 1 µM (IKK-beta): 0%
inhibition at 1 µM (EPHA3): 0%

COc1cccc(OC)c1C(=O)Nc1cccc(-c2nn3ccccc3c2-c2ccnc(Nc3cccc(F)c3)n2)c1 [UNC10225310A]
inhibition at 1 µM (CLK4): 0%
inhibition at 1 µM (CSNK1G1): 14%
inhibition at 1 µM (IRAK4): 0%
inhibition at 1 µM (CAMK2G): 0%
inhibition at 1 µM (ERBB3): 0%
inhibition at 1 µM (HIPK3): 0%
inhibition at 1 µM (JNK2): 0%
inhibition at 1 µM (ALK): 0%
inhibition at 1 µM (JNK3): 0%
inhibition at 1 µM (CLK1): 21%
inhibition at 1 µM (IKK-beta): 0%
inhibition at 1 µM (EPHA3): 0%

O=c1cc(N2CCOCC2)nc2n(Cc3cccc(Cl)c3Cl)c(C3CC3)nn12 [UNC10225469A]
inhibition at 1 µM (CLK4): 0%
inhibition at 1 µM (CSNK1G1): 0%
inhibition at 1 µM (IRAK4): 0%
inhibition at 1 µM (CAMK2G): 0%
inhibition at 1 µM (ERBB3): 9%
inhibition at 1 µM (HIPK3): 16%
inhibition at 1 µM (JNK2): 0%
inhibition at 1 µM (ALK): 0%
inhibition at 1 µM (JNK3): 0%
inhibition at 1 µM (CLK1): 27%
inhibition at 1 µM (IKK-beta): 0%
inhibition at 1 µM (EPHA3): 0%
